Source: patent US20080269293A1, “PYRAZOLE DERIVATIVES AS ANTI-PLATELET AND ANTI-THROMBOTIC AGENTS” (Pfizer Inc., priority 2006, published 2008)

Biological target: T1, platelet P2Y1 receptor (Homo sapiens, UniProt P47900)
T1 construct: expressed in transfected cells
Assay: P2Y1 receptor binding assay ([β-33P]-2-thiomethyl ADP)
Details: binding of 0.3 nM [β-33P]-2-thiomethyl ADP, hP2Y1 expressing 132N1 cell membrane, 25° C., 60 minutes
Experimental: Conducting P2Y, Receptor Binding Assay
[β−^33P]-2-thiomethyl ADP (2100 Ci/mmol) was purchased from PerkinElmer, Protease Inhibitors Complete, EDTA-free, was purchased from Roche, and ADP (Adenosine diphosphate), MRS2179, and 2-thiomethy ADP (2-Me-S-ADP) were purchased from Sigma Chemical Co.
Binding of 0.3 nM [β-^33P]-2-thiomethyl ADP to platelet P2Y1 receptor in 132N1 cell membrane was carried out in triplicate at 25° C. with 96 well plate (Corning, 3365). Nonspecific binding was defined as binding in the presence of 1 μM of 2-Me-S-ADP. One […] of dimethyl sulfoxide (DMSO) or 1 μL of DMSO (Sigma-Aldrich, 472301) containing a test compound diluted to final assay concentrations of 0.1 nM to 1 mM were placed into each well of a Corning 96-well plate. A volume of 60 μL of buffer: 50 mM Tris pH 7.5 (Sigma, T-2194), 1 mM EDTA (Gibco, 15575-038) and 100 mM NaCl (Gibco, 200740-011) containing 0.3 nM [β-^33P]-2-thiomethyl ADP 40 μL of hP2Y1 expressing 132N1 cell membrane prep was added to each well. After incubation on shaker for 60 minutes, The contents of the wells are filtered and washed 8 times with Tomtec Cell Harvester through UniFilter 96, GF/B plates (PerkinElmer, 6005177) Forty five microliters […] Scintillation cocktail (Ultima-Flo-M) was added into each well and plates counted on a Trilux Microbeta Counter.
• 1. Add 1 μL DMSO or compounds into the wells according to the protocol. • 2. Add 60 μL incubation buffer with [β-^33P]-2-thiomethyl ADP into each well. • 3. Add 40 μL hP2Y1 expressing 132N1 cell membrance prep. Incubate 60 minutes on top of the shaker (IKA Shutter MTS4). • 4. Filter and wash 8× with Tomtec Cell Harvester through UniFilter GF/B plates (PerkinElmer, 6005177). • 5. Add 45 μL scintillation cocktail into each well and plates counted on a Trilux Microbeta Counter.

T1 sequence (P47900 whole entry): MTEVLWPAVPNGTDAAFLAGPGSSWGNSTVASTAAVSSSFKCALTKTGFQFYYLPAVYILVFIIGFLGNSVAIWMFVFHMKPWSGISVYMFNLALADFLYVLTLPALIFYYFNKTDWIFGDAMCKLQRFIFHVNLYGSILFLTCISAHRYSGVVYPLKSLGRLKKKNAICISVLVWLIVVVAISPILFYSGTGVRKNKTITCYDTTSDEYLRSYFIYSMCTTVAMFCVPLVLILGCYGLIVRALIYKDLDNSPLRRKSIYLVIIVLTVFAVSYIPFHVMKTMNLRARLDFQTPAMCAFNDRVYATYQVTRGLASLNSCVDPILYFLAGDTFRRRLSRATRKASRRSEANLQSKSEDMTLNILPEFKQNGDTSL

Row | IC50 [nM] | SMILES
1 | 121 | Cc1cc(Oc2ccccc2NC(=O)Nc2ccc(C3CC3)cc2)n(-c2ccccc2Cl)n1 [Example 123, 1-(2-(1-(2-chlorophenyl)-3-methyl-1H-pyrazol-5-yloxy)phenyl)-3-(4-cyclopropylphenyl)urea]
2 | 8850 | Cc1cc(Oc2ccccc2NC(=O)Nc2ccc(F)c(F)c2F)n(-c2ccccc2)n1 [Example 45]
3 | 150 | Cc1cc(Oc2ccccc2NC(=O)Nc2ccc(OC(F)(F)F)cc2)n(-c2ccc(Cl)cc2Cl)n1 [Example 20]
4 | 564 | CCc1ccccc1-n1nc(C)cc1Oc1ccccc1NC(=O)Nc1ccc(OC)cc1 [Example 103, 1-(2-(1-(2-ethylphenyl)-3-methyl-1H-pyrazol-5-yloxy)phenyl)-3-(4-methoxyphenyl)urea]
5 | 3390 | CCOC(=O)C(C)(C)c1ccc(NC(=O)Nc2ccccc2Oc2cc(C)nn2-c2ccccc2Cl)cc1 [Example 83, 2-[4-(3-{2-[2-(2-Chloro-phenyl)-5-methyl-2H-pyrazol-3-yloxy]-phenyl}-ureido)-phenyl]-2-methyl-propionic acid ethyl ester]
6 | > 3330 | CC(=O)c1ccc(NC(=O)Nc2ccccc2Oc2cc(C)nn2-c2ccccc2Cl)cc1 [Example 118, 1-(4-acetylphenyl)-3-(2-(1-(2-chlorophenyl)-3-methyl-1H-pyrazol-5-yloxy)phenyl)urea]
7 | 991 | COc1ccccc1-n1nc(C)cc1Oc1ccccc1NC(=O)Nc1ccc(OC(F)(F)F)cc1 [Example 11]
8 | 133 | CCc1ccccc1-n1nc(C)cc1Oc1ccccc1NC(=O)Nc1ccc(Cl)cc1 [Example 111, 1-(4-chlorophenyl)-3-(2-(1-(2-ethylphenyl)-3-methyl-1H-pyrazol-5-yloxy)phenyl)urea]
9 | > 10000 | Cc1cc(Oc2ccccc2NC(=O)Nc2ccc(CO)cc2)n(-c2ccccc2Cl)n1 [Example 87, 1-{2-[2-(2-Chloro-phenyl)-5-methyl-2H-pyrazol-3-yloxy]-phenyl}-3-(4-hydroxymethyl-phenyl)-urea]
10 | 22 | CCc1ccccc1-n1nc(C)cc1Oc1ccccc1NC(=O)Nc1ccc(C(C)C)cc1 [Example 104, 1-(2-(1-(2-ethylphenyl)-3-methyl-1H-pyrazol-5-yloxy)phenyl)-3-(4-isopropylphenyl)urea]
11 | 87 | CCc1ccccc1-n1nc(C)cc1Oc1ccccc1NC(=O)Nc1ccc(-c2ccccc2)cc1 [Example 91, 1-(4-(phenyl)phenyl)-3-(2-(1-(2-ethylphenyl)-3-methyl-1H-pyrazol-5-yloxy)phenyl)urea]
12 | > 10000 | Cc1cc(Oc2ccccc2NC(=O)Nc2ccc(C3CCS(=O)(=O)CC3)cc2)n(-c2ccccc2Cl)n1 [Example 129]
13 | 207 | Cc1cc(Oc2ccccc2NC(=O)Nc2ccc(C(C)(C)C)cc2)n(-c2ccccc2)n1 [Example 12]
14 | > 10000 | Cc1cc(Oc2ccccc2NC(=O)Nc2c(Cl)cccc2C(F)(F)F)n(-c2ccccc2)n1 [Example 59]
15 | 6980 | COc1ccc(NC(=O)Nc2ccccc2Oc2cc(C)nn2-c2ccccc2)cc1Cl [Example 42]
16 | 1240 | Cc1cc(Oc2cc(C)c(F)cc2NC(=O)Nc2ccc(OC(F)(F)F)cc2)n(-c2ccccc2)n1 [Example 30]
17 | 198 | CCc1ccccc1-n1nc(C)cc1Oc1ccccc1NC(=O)Nc1ccc(OC(C)C)cc1 [Example 109, 1-(2-(1-(2-ethylphenyl)-3-methyl-1H-pyrazol-5-yloxy)phenyl)-3-(4-isopropoxyphenyl)urea]
18 | 8990 | Cc1cc(Oc2ccncc2NC(=O)Nc2ccc(OC(F)(F)F)cc2)n(-c2ccccc2)n1 [Example 23, 1-[4-(5-Methyl-2-phenyl-2H-pyrazol-3-yloxy)-pyridin-3-yl]-3-(4-trifluoromethoxy-phenyl)-urea]

Row | IC50 [nM] | SMILES
19 | > 10000 | Cc1cc(Oc2ccccc2NC(=O)Nc2c(C)cccc2Cl)n(-c2ccccc2)n1 [Example 62]
20 | 48 | CCc1ccccc1-n1nc(C)cc1Oc1ccccc1NC(=O)Nc1ccc(OC(F)(F)F)cc1 [Example 3]
21 | 68 | Cc1cc(Oc2ccccc2NC(=O)Nc2ccc(OC(F)(F)F)cc2)n(-c2cc(Cl)ccc2Cl)n1 [Example 98, 1-(2-(1-(2,5-dichlorophenyl)-3-methyl-1H-pyrazol-5-yloxy)phenyl)-3-(4-(trifluoromethoxy)phenyl)urea]
22 | 2220 | CSc1ccc(NC(=O)Nc2ccccc2Oc2cc(C)nn2-c2ccccc2)cc1 [Example 39]
23 | 8780 | CCc1ccccc1-n1nc(C)cc1Oc1ccccc1NC(=O)Nc1ccc(OC(F)(F)F)cc1Cl [Example 94, 1-(2-chloro-4-(trifluoromethoxy)phenyl)-3-(2-(1-(2-ethylphenyl)-3-methyl-1H-pyrazol-5-yloxy)phenyl)urea]
24 | 18 | Cc1cc(Oc2ccccc2NC(=O)Nc2ccc(C3CCCCC3)cc2)n(-c2ccc(F)cc2Cl)n1 [Example 115, 1-(2-(1-(2-chloro-4-fluorophenyl)-3-methyl-1H-pyrazol-5-yloxy)phenyl)-3-(4-cyclohexylphenyl)urea]
25 | > 10000 | Cc1cc(Oc2ccccc2NC(=O)Nc2ccc(-n3ccnc3)cc2)n(-c2ccccc2Cl)n1 [Example 100, 1-(4-(1H-imidazol-1-yl)phenyl)-3-(2-(1-(2-chlorophenyl)-3-methyl-1H-pyrazol-5-yloxy)phenyl)urea]
26 | 459 | Cc1cccc(-n2nc(C)cc2Oc2ccccc2NC(=O)Nc2ccc(OC(F)(F)F)cc2)c1 [Example 5]
27 | > 10000 | Cc1cc(Oc2ccccc2NC(=O)Nc2ccccc2Br)n(-c2ccccc2)n1 [Example 82]
28 | > 10000 | Cc1cc(Oc2ccccc2NC(=O)Nc2ccc(C(C)N(C)C)cc2)n(-c2ccccc2Cl)n1 (centres unmarked) [Example 117, 1-(2-(1-(2-chlorophenyl)-3-methyl-1H-pyrazol-5-yloxy)phenyl)-3-(4-(1-(dimethylamino)ethyl)phenyl)urea]
29 | 57 | Cc1cc(Oc2ccccc2NC(=O)Nc2ccc(OC(F)(F)F)cc2)n(-c2ccccc2C(C)C)n1 [Example 113, 1-(2-(1-(2-isopropylphenyl)-3-methyl-1H-pyrazol-5-yloxy)phenyl)-3-(4-(trifluoromethoxy)phenyl)urea]
30 | > 10000 | CC(C)c1cc(Oc2ccccc2NC(=O)Nc2ccc(OC(F)(F)F)cc2)n(-c2ccccc2)n1 [Example 29, 1-[2-(5-Isopropyl-2-phenyl-2H-pyrazol-3-yloxy)-phenyl]-3-(4-trifluoromethoxy-phenyl)-urea]
31 | 1300 | Cc1cc(Oc2ccccc2NC(=O)Nc2cccc(C(F)(F)F)c2)n(-c2ccccc2)n1 [Example 36]
32 | > 10000 | Cc1cc(Oc2ccccc2NC(=O)Nc2c(C)cccc2C(C)(C)C)n(-c2ccccc2)n1 [Example 77]
33 | 54 | Cc1cc(Oc2ccccc2NC(=O)Nc2ccc(C3CCCCC3)cc2)n(-c2ccccc2Cl)n1 [Example 89, 1-{2-[2-(2-Chloro-phenyl)-5-methyl-2H-pyrazol-3-yloxy]-phenyl}-3-(4-cyclohexyl-phenyl)-urea]
34 | > 10000 | Cc1cc(Oc2ccccc2NC(=O)Nc2cccc(C#N)c2)n(-c2ccccc2)n1 [Example 46]
35 | 139 | Cc1cc(Oc2ncccc2NC(=O)Nc2ccc(OC(F)(F)F)cc2)n(-c2ccccc2Cl)n1 [Example 22, 1-{2-[2-(2-Chloro-phenyl)-5-methyl-2H-pyrazol-3-yloxy]-pyridin-3-yl}-3-(4-trifluoromethoxy-phenyl)-urea]
